Results from PMC4303209, “A novel phosphatidylinositol 3-kinase (PI3K) inhibitor directs a potent FOXO-dependent, p53-independent cell cycle arrest phenotype characterized by the differential induction of a subset of FOXO-regulated genes” (Breast Cancer Research : BCR, 2014).

Test system: MCF-7 breast cancer cells
Assay: Microarray gene expression analysis (Agilent whole human genome 4 x 44K; compound vs DMSO, LIMMA log2 fold change)
Format: cell-based
Conditions: cell cycle genes

Structure (SMILES): Cn1ncc2c(N3CCOCC3)nc(-c3cccc(O)c3)nc21 [ETP-45658]
- TUBB3 log2FC (Gene 10381): -0.638
- ANAPC10 log2FC (Gene 10393): 0.516
- NDRG1 log2FC (Gene 10397): 1.084
- GNB2L1 log2FC (Gene 10399): -0.052
- PRMT5 log2FC (Gene 10419): -0.043
- MAD2L2 log2FC (Gene 10459): -0.088
- TACC3 log2FC (Gene 10460): -0.430
- CREB3 log2FC (Gene 10488): -0.118
- MYBBP1A log2FC (Gene 10514): -0.538
- CIB1 log2FC (Gene 10519): -0.090
- SSSCA1 log2FC (Gene 10534): -0.330
- DCTN2 log2FC (Gene 10540): 0.043
- SMC2 log2FC (Gene 10592): 0.719
- ERN2 log2FC (Gene 10595): -0.829
- USP16 log2FC (Gene 10600): 0.971
- HEXIM1 log2FC (Gene 10614): -0.354
- SPAG5 log2FC (Gene 10615): 0.309
- STAMBP log2FC (Gene 10617): 0.425
- TXNIP log2FC (Gene 10628): 2.131
- PDPN log2FC (Gene 10630): -0.069
- RGS14 log2FC (Gene 10636): 0.556
- CTCF log2FC (Gene 10664): -0.082
- CGRRF1 log2FC (Gene 10668): 0.871
- CGREF1 log2FC (Gene 10669): -0.152
- USP39 log2FC (Gene 10713): 0.041
- NUDC log2FC (Gene 10726): -0.412
- PLK4 log2FC (Gene 10733): 0.611
- STAG3 log2FC (Gene 10734): 0.527
- STAG2 log2FC (Gene 10735): 1.297
- NES log2FC (Gene 10763): -0.458
- PLK2 log2FC (Gene 10769): -0.887
- NEK6 log2FC (Gene 10783): -0.620
- SDCCAG8 log2FC (Gene 10806): 0.654
- TUBGCP2 log2FC (Gene 10844): -0.131
- LILRB1 log2FC (Gene 10859): -0.164
- USP19 log2FC (Gene 10869): 0.174
- BLCAP log2FC (Gene 10904): -0.662
- TXNL4A log2FC (Gene 10907): -0.510
- SUGT1 log2FC (Gene 10910): 0.410
- GADD45G log2FC (Gene 10912): -0.067
- EHMT2 log2FC (Gene 10919): 0.089
- BTG3 log2FC (Gene 10950): -0.035
- MAPRE2 log2FC (Gene 10982): -0.284
- KIF2C log2FC (Gene 11004): 0.489
- TLK2 log2FC (Gene 11011): 0.607
- RAB35 log2FC (Gene 11021): -0.457
- TDRKH log2FC (Gene 11022): 0.089
- PIM2 log2FC (Gene 11040): -0.863
- UBE2C log2FC (Gene 11065): -0.393
- TRIOBP log2FC (Gene 11078): 0.398
- NUPL2 log2FC (Gene 11097): 0.144
- KATNA1 log2FC (Gene 11104): 0.716
- PRDM4 log2FC (Gene 11108): 0.462
- CIT log2FC (Gene 11113): 0.376
- ZWINT log2FC (Gene 11130): -0.088
- CDC37 log2FC (Gene 11140): -0.282
- LZTS1 log2FC (Gene 11178): -0.979
- WDR6 log2FC (Gene 11180): -0.468
- RASSF1 log2FC (Gene 11186): 1.482
- CEP250 log2FC (Gene 11190): -0.206
- PMF1 log2FC (Gene 11243): -0.207
- DCTN3 log2FC (Gene 11258): 0.235
- TUSC2 log2FC (Gene 11334): -0.766
- OIP5 log2FC (Gene 11339): 0.202
- MAPRE1 log2FC (Gene 22919): -0.363
- MAPRE3 log2FC (Gene 22924): 0.034
- TRIM32 log2FC (Gene 22954): -0.374
- TPX2 log2FC (Gene 22974): 0.049
- AZI1 log2FC (Gene 22994): 0.520
- CEP152 log2FC (Gene 22995): 0.685
- USP33 log2FC (Gene 23032): 1.045
- WAPAL log2FC (Gene 23063): 0.789
- TRIM35 log2FC (Gene 23087): 0.473
- CLASP2 log2FC (Gene 23122): 0.610
- POGZ log2FC (Gene 23126): 0.396
- PHF8 log2FC (Gene 23133): -0.483
- SMC5 log2FC (Gene 23137): -0.109
- FBXL7 log2FC (Gene 23194): -0.171
- PSME4 log2FC (Gene 23198): 0.174
- RRS1 log2FC (Gene 23212): -0.840
- NUP210 log2FC (Gene 23225): -0.548
- PLCB1 log2FC (Gene 23236): 1.212
- BOP1 log2FC (Gene 23246): -0.416
- NUP160 log2FC (Gene 23279): -0.451
- FBXW11 log2FC (Gene 23291): -0.357
- UBR2 log2FC (Gene 23304): 0.788
- USP22 log2FC (Gene 23326): 0.274
- CLASP1 log2FC (Gene 23332): -0.307
- PPP1R13B log2FC (Gene 23368): 0.098
- DICER1 log2FC (Gene 23405): -0.887
- SIRT1 log2FC (Gene 23411): 1.263
- ITGB3BP log2FC (Gene 23421): 0.773
- PES1 log2FC (Gene 23481): -0.445
- ZFYVE26 log2FC (Gene 23503): 0.361
- SCRIB log2FC (Gene 23513): -0.165
- CCNDBP1 log2FC (Gene 23582): 0.710
- CD2AP log2FC (Gene 23607): 0.637
- NUP62 log2FC (Gene 23636): -0.576
- RABGAP1 log2FC (Gene 23637): 0.485
- PPP1R15A log2FC (Gene 23645): 1.011
- POLA2 log2FC (Gene 23649): -0.863
- ZNF318 log2FC (Gene 24149): 0.346
- RAD54B log2FC (Gene 25788): 0.549
- NIPBL log2FC (Gene 25836): 0.842
- INTS7 log2FC (Gene 25896): 0.076
- AHCTF1 log2FC (Gene 25909): 0.469
- SIN3A log2FC (Gene 25942): 0.788
- SH2B1 log2FC (Gene 25970): -0.484
- EGFL6 log2FC (Gene 25975): 0.028
- SENP6 log2FC (Gene 26054): 0.596
- FBXO6 log2FC (Gene 26270): 0.322
- FBXO5 log2FC (Gene 26271): 0.498
- NUPR1 log2FC (Gene 26471): 0.023
- AATF log2FC (Gene 26574): -0.362
- CKAP2 log2FC (Gene 26586): 0.829
- HBP1 log2FC (Gene 26959): 3.023
- MLH3 log2FC (Gene 27030): 0.187
- MTBP log2FC (Gene 27085): 0.847
- TJP3 log2FC (Gene 27134): 0.162
- VPS4A log2FC (Gene 27183): -0.366
- PDCD4 log2FC (Gene 27250): 1.281
- APEX2 log2FC (Gene 27301): -0.875
- UBE2S log2FC (Gene 27338): -0.678
- EML4 log2FC (Gene 27436): -0.240
- PPP2R3B log2FC (Gene 28227): -0.106
- MCTS1 log2FC (Gene 28985): -0.243
- HIPK2 log2FC (Gene 28996): -0.166
- BRD7 log2FC (Gene 29117): 0.662
- RACGAP1 log2FC (Gene 29127): 0.627
- UHRF1 log2FC (Gene 29128): -0.406
- PSMC3IP log2FC (Gene 29893): 0.342
- GPSM2 log2FC (Gene 29899): 0.274
- SAC3D1 log2FC (Gene 29901): 0.069
- RPA4 log2FC (Gene 29935): -0.445
- ANAPC4 log2FC (Gene 29945): 0.654
- SERTAD1 log2FC (Gene 29950): -1.280
- CUZD1 log2FC (Gene 50624): 0.419
- PARD6A log2FC (Gene 50855): -0.204
- GMNN log2FC (Gene 51053): 0.163
- RPS27L log2FC (Gene 51065): 0.265
- MLXIPL log2FC (Gene 51085): 0.256
- SBDS log2FC (Gene 51119): 0.607
- DYNC1LI1 log2FC (Gene 51143): 0.709
- ING4 log2FC (Gene 51147): 1.465
- TUBE1 log2FC (Gene 51175): 0.231
- LEF1 log2FC (Gene 51176): -0.842
- HERC5 log2FC (Gene 51191): 0.711
- NUSAP1 log2FC (Gene 51203): 0.849
- DUSP13 log2FC (Gene 51207): -0.060
- WAC log2FC (Gene 51322): 0.945
- DACT1 log2FC (Gene 51339): 0.045
- FZR1 log2FC (Gene 51343): -0.538
- TAOK3 log2FC (Gene 51347): 1.243
- PRKAG2 log2FC (Gene 51422): -0.498
- SNX9 log2FC (Gene 51429): 0.822
- ANAPC7 log2FC (Gene 51434): -0.070
- LCMT1 log2FC (Gene 51451): -0.115
